Patent US20130156857A1, “Pharmaceutical Compositions Containing Diacerein” (TWI BIOTECHNOLOGY, INC., priority 2008, published 2013)
Converted amounts (≈) assume the structure as drawn. Where two headings read alike, the source gives them in different places. Each block holds one compound with its values, some of them ahead of it.

What was measured:
[1] = Solubility and stability pH profile of diacerein at ambient temperature for 48 hours; type: physicochemical; details: for Proportion of Diacerein and its degradants: Diacerein / solubility at 48 h: 48 hours; for solubility at 48 h: thermodynamic from solid, read-out: Total solubility
Description: (§1) The tables below indicate the solubility and stability of diacerein in buffer solutions with different pH values. […] The degradation products including rhein increase at a pH above 5. The poor stability of diacerein in the intestinal environment may result in incomplete absorption and cause poor and variable bioavailability. Moreover, one of the increased degradants in the intestinal environment, rhein, has been suspected to be a major factor in stimulating colon mucosa and results in diarrhea. Accordingly, methods to stabilize diacerein during gastro-intestinal absorption might improve its bioavailability as well as the side effect of diarrhea. The stabilization methods for use with diacerein may include the addition of acidifying or buffering agents or complexation with cyclodextrins.

[2] = Solubility and stability of diacerein at ambient temperature for one hour; type: physicochemical
Description: as §1

[3] = cited from earlier work
[4] = in vivo; cited from earlier work
[5] = cited from earlier work; remark: listed apart in the source
[6] = cited from earlier work; remark: listed apart in the source

- Proportion of Diacerein and its degradants: Diacerein ([1]; 0.01N HCl, final pH 1.98, ambient temperature): 100%
- Proportion of Diacerein and its degradants: Diacerein ([1]; 50 mM NaH2PO4, final pH 3.03, ambient temperature): 100%
- Proportion of Diacerein and its degradants: Diacerein ([1]; 50 mM NaH2PO4, final pH 4.17, ambient temperature): 100%
- Proportion of Diacerein and its degradants: Diacerein ([1]; 50 mM NaH2PO4, final pH 5.04, ambient temperature): 60%
- Proportion of Diacerein and its degradants: Diacerein ([1]; 50 mM NaH2PO4, final pH 5.97, ambient temperature): 77%
- Proportion of Diacerein and its degradants: Diacerein ([1]; 50 mM NaH2PO4, final pH 6.55, ambient temperature): 45%
- Proportion of Diacerein and its degradants: Diacerein ([1]; 50 mM NaH2PO4, final pH 6.70, ambient temperature): 34%
- solubility at 48 h ([1]; 50 mM NaH2PO4 buffer, aqueous buffer, 50 mM NaH2PO4, final pH 3.03, ambient temperature): 0.35 µg/mL (≈ 0.95 µM)
- solubility at 48 h ([1]; 50 mM NaH2PO4 buffer, aqueous buffer, 50 mM NaH2PO4, final pH 4.17, ambient temperature): 0.43 µg/mL (≈ 1.17 µM)
- Proportion of Diacerein and its degradants: Diacerein ([1]; 0.1N HCl, final pH 1.17, ambient temperature): 100%
- Proportion of Diacerein and its degradants: Diacerein ([1]; Water, final pH 5.79, ambient temperature): 90%
- solubility at 48 h ([1]; buffer solution (0.01N HCl), simulated gastric fluid, 0.01N HCl, final pH 1.98, ambient temperature): 0.15 µg/mL (≈ 0.407 µM)
- solubility in buffer solution ([1]; pH below 4.17): relatively low
- stability in buffer solution ([1]; pH below 4.17): stable
- solubility at 48 h ([1]; simulated gastric fluid, 0.1N HCl, final pH 1.17, ambient temperature): 0.17 µg/mL (≈ 0.462 µM)
- Proportion of Diacerein and its degradants: Diacerein ([2]; final pH 6.55*): 90%
- Proportion of Diacerein and its degradants: Diacerein ([2]; final pH 6.70*): 83%
Structure (SMILES): CC(=O)Oc1cccc2c1C(=O)c1c(OC(C)=O)cc(C(=O)O)cc1C2=O [Diacerein, 4,5-bis(acetyloxy)-9,10-dioxo-2-anthracene carboxylic acid]
- solubility in water [3]: practically insoluble
- conversion before reaching the systemic circulation [4]: entirely converted into rhein
- Oral bioavailability [5]: 35-56%
- bioavailability with feeding ([5]; oral, feeding): 43-70%
- diarrhea or soft stools occurred in the patients ([6]; 3-year clinical study, diacerein twice a day with meals): up to 30%
- severity of diarrhea ([6]; occurs within the first two weeks of treatment): mild-to-moderate

Structure (SMILES): O=C(O)c1cc(O)c2c(c1)C(=O)c1cccc(O)c1C2=O [Rhein]
- conjugated in the liver to rhein glucuronide [4]: 60%
- conjugated in the liver to rhein sulfate [4]: 20%
- eliminated by the renal route [4]: 20%
